Earlier results, collected in patent publication US20040258838A1, “Method for preserving wood materials using precipitated copper compounds” (priority 2003, published 2004).

System: fish
Settings: essentially 1 milligram per liter

SMILES: [Cu] [copper]
- level at which copper is extremely toxic to fish: below 1 part per million
